From US20250171459A1, “2-METHYL-4',5'-DIHYDROSPIRO[PIPERIDINE-4,7'-THIENO[2,3-C]PYRAN] DERIVATIVES AS INHIBITORS OF APOL1 AND METHODS OF USING SAME” (Vertex Pharmaceuticals Incorporated, priority 2022, published 2025)

What follows are compounds tested against T1, APOL1 (Homo sapiens, UniProt O14791) (assay: MultiTox-Fluor Multiplex Cytotoxicity Assay in tet-inducible APOL1 T-REx-HEK293 cells (cell rescue, ratio of dead to live cells)). Details: tet-inducible transgenic APOL1 T-REx-HEK293 cell lines, 50 ng/mL tet, 24 hours; read-out: IP50 (i.e., IC50 for cell proliferation).
T1 sequence (O14791 1-398 S342G/I384M): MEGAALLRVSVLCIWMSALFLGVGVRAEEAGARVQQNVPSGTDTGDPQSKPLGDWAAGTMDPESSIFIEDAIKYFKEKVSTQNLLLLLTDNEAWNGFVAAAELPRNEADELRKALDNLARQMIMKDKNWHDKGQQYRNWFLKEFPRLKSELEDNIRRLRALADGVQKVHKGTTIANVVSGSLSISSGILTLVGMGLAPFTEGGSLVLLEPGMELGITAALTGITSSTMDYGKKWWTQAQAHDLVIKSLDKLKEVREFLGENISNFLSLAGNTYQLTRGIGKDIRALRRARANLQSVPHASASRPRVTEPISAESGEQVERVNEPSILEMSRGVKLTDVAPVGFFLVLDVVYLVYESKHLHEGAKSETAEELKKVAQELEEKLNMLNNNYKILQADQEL
Assay type: cell-based
Method in brief: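 T-REx-HEK293 cells with tet-inducible APOL1 were treated with compound (10 μM top, 10-point 3-fold dilution, duplicate) plus 50 ng/mL tetracycline for 24 h at 37° C, in DMEM with 2% tet-free FBS. MultiTox-Fluor protease signals gave a dead/live ratio, normalized to no tet (100% viability) and tet alone (0%).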

Row | Structure (SMILES) | IC50 [µM]
1 | CCc1cc2c(s1)CCOC21CCN(Cc2ccc(C(=O)Nc3cccc4cc[nH]c34)nc2)CC1 [Compound 1048] | < 0.1
2 | C[C@H]1C[C@@]2(CCN1Cc1cnn(CC(O)CC3(O)CCCC3)c1)OCCc1c2sc(C(F)(F)F)c1CO (some centres unmarked) [Compound 962] | < 0.1
3 | CCc1cc2c(s1)CCO[C@@]21CCN(Cc2cn(CC(C)(C)C3CCOCC3)nn2)[C@@H](C)C1 [Compound 100] | 0.1 to 0.5
4 | C[C@H]1C[C@@]2(CCN1Cc1cccc(OCC(N)=O)c1)OCCc1c2sc(Cl)c1CO [Compound 718] | 0.1 to 0.5
5 | CNS(=O)(=O)CCn1cc(CN2CCC3(CC2)OCC(C)(C)c2sc(Cl)cc23)cn1 [Compound 1177, 2-[4-[(2-chloro-7,7-dimethyl-spiro[6H-thieno[3,2-c]pyran-4,4′-piperidine]-1′-yl)methyl]pyrazol-1-yl]-N-methyl-ethanesulfonamide] | < 0.1
6 | CCc1cc2c(s1)CCOC21CCN(Cc2ccc(C(=O)NCc3ccn(C)n3)nc2)CC1 [Compound 1059] | 0.1 to 0.5
7 | CCc1cc2c(s1)CCO[C@@]21CCN(Cc2cn(C3CCN(S(C)(=O)=O)C3)nn2)[C@@H](C)C1 (some centres unmarked) [Compound 30] | 0.1 to 0.5
8 | CCN1CC[C@]2(C[C@@H]1C)OCC(O)c1cc(Cl)sc12 (stereo in doubt) [Compound 821, (2′S,4S,7R)-2-chloro-1′-ethyl-2′-methyl-spiro[4,5-dihydrothieno[2,3-c]pyran-7,4′-piperidine]-4-ol] | 0.1 to 0.5
9 | Cc1cc(CN2CC[C@]3(C[C@@H]2C)OC[C@H](O)c2cc(Cl)sc23)nn1C [Compound 781] | 0.5 to 1
10 | CCc1cc2c(s1)CCO[C@@]21CCN(C2COCC2O)[C@@H](C)C1 (stereo partly drawn) [Compound 233, 4-[(2′S,4R)-2-ethyl-2′-methyl-spiro[6,7-dihydrothieno[3,2-c]pyran-4,4′-piperidine]-1′-yl]tetrahydrofuran-3-ol] | 0.1 to 0.5
11 | C[C@H]1C[C@@]2(CCN1Cc1cnn(CCS(C)(=O)=O)c1)OCC(O)c1cc(Cl)sc12 (stereo partly drawn) [Compound 767, (2′S,7R)-2-chloro-2′-methyl-1′-[[1-(2-methylsulfonylethyl)pyrazol-4-yl]methyl]spiro[4,5-dihydrothieno[2,3-c]pyran-7,4′-piperidine]-4-ol] | < 0.1
12 | C=C(CO)n1cc(CN2CC[C@]3(C[C@@H]2C)OCCc2c3sc(C(F)(F)F)c2CO)cn1 [Compound 929, 2-[4-[[(2′S,7R)-3-(hydroxymethyl)-2′-methyl-2-(trifluoromethyl)spiro[4,5-dihydrothieno[2,3-c]pyran-7,4′-piperidine]-1′-yl]methyl]pyrazol-1-yl]prop-2-en-1-ol] | < 0.1
13 | Cc1ncc(CN2CC[C@]3(C[C@@H]2C)OC[C@H](O)c2cc(Cl)sc23)cn1 [Compound 793] | 0.1 to 0.5
14 | CCc1cc2c(s1)CCO[C@@]21CCN(Cc2cn(CCCO)nn2)[C@@H](C)C1 [Compound 153] | < 0.1
15 | C[C@H]1C[C@@]2(CCN1Cc1cnn(C3CCS(=O)(=O)C3)c1)OCCc1c2sc(C(F)(F)F)c1CO (stereo partly drawn) [Compound 911, [(2′S, 7R)-1′-[[1-(1,1-dioxothiolan-3-yl)pyrazol-4-yl]methyl]-2′-methyl-2-(trifluoromethyl)spiro[4,5-dihydrothieno[2,3-c]pyran-7,4′-piperidine]-3-yl]methanol] | < 0.1
16 | C[C@H]1C[C@@]2(CCN1Cc1cnn(CC(C)(O)CO)c1)OCCc1c2sc(C(F)(F)F)c1CO (some centres unmarked) [Compound 936] | < 0.1
17 | CCc1cc2c(s1)CCOC21CCN(Cc2cn(CC(=O)NCC(C)O)nn2)CC1 (centres unmarked) [Compound 1092] | 0.5 to 1
18 | CCc1cc2c(s1)CCO[C@@]21CCN(CC2CN(C(=O)c3c[nH]c(C(F)(F)F)n3)C2)[C@@H](C)C1 [Compound 460] | < 0.1
19 | CCc1cc2c(s1)CCO[C@@]21CCN(C[C@H]2C[C@@H](NC(=O)OC(C)(C)C)C2)[C@@H](C)C1 [Compound 1039] | < 0.1
20 | CCc1cc2c(s1)CCO[C@@]21CCN(CC2CN(C(=O)COC(C)(C)C)C2)[C@@H](C)C1 [Compound 442] | < 0.1
21 | CCc1cc2c(s1)CCO[C@@]21CCN(C[C@H]2C[C@@H](NC(=O)C(F)(F)F)C2)[C@@H](C)C1 [Compound 387, N-[3-[[(2′S,4R)-2-ethyl-2′-methyl-spiro[6,7-dihydrothieno[3,2-c]pyran-4,4′-piperidine]-1′-yl]methyl]cyclobutyl]-2,2,2-trifluoro-acetamide] | 0.1 to 0.5
22 | CCc1cc2c(s1)CCO[C@@]21CCN(CC2CN(C(=O)COC)C2)[C@@H](C)C1 [Compound 436] | < 0.1
23 | CCc1cc2c(s1)CCOC21CCN(Cc2ccc(C(=O)NCCO)nc2)CC1 [Compound 1056] | 0.1 to 0.5
24 | CCc1cc2c(s1)CCO[C@@]21CCN(C[C@H]2C[C@@H](NC(=O)CN3CCc4ccccc43)C2)[C@@H](C)C1 [Compound 337] | < 0.1

Row | Structure (SMILES) | IC50 [µM]
25 | C[C@H]1C[C@@]2(CCN1Cc1cnn(C3CN(S(C)(=O)=O)C3)c1)OCCc1c2sc(C(F)(F)F)c1CO [Compound 883] | < 0.1
26 | C[C@H]1C[C@@]2(CCN1C1CCCC1O)OCCc1cc(CC(F)F)sc12 (some centres unmarked) [Compound 595] | < 0.1
27 | CCc1cc2c(s1)CCO[C@@]21CCN(CCn2cccn2)[C@@H](C)C1 [Compound 286] | 0.5 to 1
28 | CC(C)Cn1cc(CN2CC[C@]3(C[C@@H]2C)OCCc2cc(Cl)sc23)cn1 [Compound 704] | 0.1 to 0.5
29 | CCOC(=O)C(C)(O)Cn1cc(CN2CC[C@]3(C[C@@H]2C)OCCc2c3sc(C(F)(F)F)c2CO)cn1 (stereo partly drawn) [Compound 988, Ethyl 2-hydroxy-3-[4-[[(2′S, 7R)-3-(hydroxymethyl)-2′-methyl-2-(trifluoromethyl)spiro[4,5-dihydrothieno[2,3-c]pyran-7,4′-piperidine]-1′-yl]methyl]pyrazol-1-yl]-2-methyl-propanoate] | < 0.1
30 | CCc1cc2c(s1)CCO[C@@]21CCN(Cc2cn(Cc3cnc(C)cn3)nn2)[C@@H](C)C1 [Compound 32] | < 0.1
31 | CNC(=O)c1cccc(CN2CC[C@]3(C[C@@H]2C)OCCc2cc(Cl)sc23)c1 [Compound 652] | 0.1 to 0.5
32 | CCc1cc2c(s1)CCOC21CCN(Cc2cn(CC(=O)NC3COC3)nn2)CC1 [Compound 1122] | 0.5 to 1
33 | C[C@H]1C[C@@]2(CCN1Cc1cnn(CC(O)CC3(C#N)CC3)c1)OC[C@@H](O)c1cc(C(F)(F)F)sc12 (some centres unmarked) [Compound 973] | < 0.1
34 | C[C@H]1C[C@@]2(CCN1Cc1cnn(CCS(C)(=O)=O)c1)OCCc1cc(C#N)sc12 [Compound 1035, (2′S,7R)-2′-methyl-1′-[[1-(2-methylsulfonylethyl)pyrazol-4-yl]methyl]spiro[4,5-dihydrothieno[2,3-c]pyran-7,4′-piperidine]-2-carbonitrile] | < 0.1
35 | C[C@H]1C[C@@]2(CCN1Cc1cnn(Cc3cccnc3)c1)OCCc1cc(Cl)sc12 [Compound 701] | < 0.1
36 | CCc1cc2c(s1)CCO[C@@]21CCN(Cc2cn([C@@H]3CCN(C(=O)OC(C)(C)C)C3)nn2)[C@@H](C)C1 [Compound 15, tert-butyl (3R)-3-[4-[[(2′S,4R)-2-ethyl-2′-methyl-spiro[6,7-dihydrothieno[3,2-c]pyran-4,4′-piperidine]-1′-yl]methyl]triazol-1-yl]pyrrolidine-1-carboxylate] | 0.1 to 0.5
37 | CCc1cc2c(s1)CCO[C@@]21CCN(Cc2cn(Cc3ncc(C)o3)nn2)[C@@H](C)C1 [Compound 40] | 0.1 to 0.5
38 | CCc1cc2c(s1)CCO[C@@]21CCN(C[C@H]2C[C@@H](NC(=O)C3CNC(=O)O3)C2)[C@@H](C)C1 (some centres unmarked) [Compound 361] | 0.1 to 0.5
39 | CCc1cc2c(s1)C(C)COC21CCN(Cc2cn(CCS(C)(=O)=O)nn2)[C@@H](C)C1 (some centres unmarked) [Compound 535] | < 0.1
40 | CCc1cc2c(s1)CCO[C@@]21CCN(Cc2cnn(CCO)c2)[C@@H](C)C1 [Compound 269] | < 0.1
41 | C[C@H]1C[C@@]2(CCN1Cc1cn(CCS(C)(=O)=O)nn1)OCC(F)(F)c1cc(Cl)sc12 [Compound 862, (2S,4R)-2′-chloro-4′,4′-difluoro-2-methyl-1-((1-(2-(methylsulfonyl)ethyl)-1H-1,2,3-triazol-4-yl)methyl)-4′,5′-dihydrospiro[piperidine-4,7′-thieno[2,3-c]pyran]] | 0.1 to 0.5
42 | C[C@H]1C[C@@]2(CCN1Cc1ncccc1F)OCCc1cc(CC(F)F)sc12 [Compound 589] | 0.5 to 1
43 | CCc1cc2c(s1)CCO[C@@]21CCN(CC2CC(NC(=O)CCCCCOCCOCCOCCOCCCCCCCl)C2)[C@@H](C)C1 (stereo partly drawn) [Compound 385, 6-[2-[2-[2-(6-chlorohexoxy)ethoxy]ethoxy]ethoxy]-N-[3-[[(2′S,4R)-2-ethyl-2′-methyl-spiro[6,7-dihydrothieno[3,2-c]pyran-4,4′-piperidine]-1′-yl]methyl]cyclobutyl]hexanamide] | 0.1 to 0.5
44 | CCc1cc2c(s1)CCOC21CCN(Cc2cn(C(C)C(=O)NCCO)nn2)CC1 (centres unmarked) [Compound 1117] | 0.5 to 1
45 | CCc1cc2c(s1)CCO[C@@]21CCN(C[C@H]2C[C@@H](NS(=O)(=O)CC)C2)[C@@H](C)C1 [Compound 394] | < 0.1
46 | CC(=O)OC1CO[C@@]2(CCN(Cc3cnn(CCS(C)(=O)=O)c3)[C@@H](C)C2)c2sc(Cl)cc21 (stereo partly drawn) [Compound 847, [(2′S, 7R)-2-chloro-2′-methyl-1′-[[1-(2-methylsulfonylethyl)pyrazol-4-yl]methyl]spiro[4,5-dihydrothieno[2,3-c]pyran-7,4′-piperidine]-4-yl]acetate] | < 0.1
47 | CCc1cc2c(s1)CCO[C@@]21CCN(Cc2nc3ccccc3[nH]2)[C@@H](C)C1 [Compound 291] | 0.1 to 0.5
